The values that follow come from patent publication US4588817A, “Antibiotic nodusmicins” (priority 1984, dated 1986).

One data set concerns S. aureus UC-76. Kind of data set: MIC, microplate broth-dilution, S. aureus UC-76. The note with it: Sensitive strain; BHI broth.
In the next data set the test system is S. aureus UC 80. Kind of data set: agar diffusion (dipped disc) assay, zone of inhibition, S. aureus UC 80. As to conditions: 1 mg./ml. methanolic solution, 12.7 mm paper disc, 16 hours; NZ = no zone. (A growth-free zone around the sample is the usual read-out of agar diffusion tests.)
The subject of another data set is S. aureus UC-570. Description: MIC, microplate broth-dilution, S. aureus UC-570. The note with it: Sensitive strain; BHI broth.
Another data set deals with S. aureus UC-746. Description: MIC, microplate broth-dilution, S. aureus UC-746. The note with it: Resistant to tetracycline; BHI broth.
The next data set deals with S. lutea UC-130. Description: agar diffusion (dipped disc) assay, zone of inhibition, S. lutea UC-130. As to conditions: for zone of inhibition at 1000 µg/mL: Micrococcus luteus.
Data set [1] in a line: solubility remark in the MIC test. The note with it: in place of MIC values.

Values after ≈ are worked out from the molar mass of the structure shown. Read-outs that look alike come from different tables or passages of the source.

`COC1CC2C=CC3C4OC2(C(C)=CC(C)C(C(C)O)OC1=O)C3C(O)C(C)C4OC(=O)c1ccc[nH]1` (stereo not drawn) [U-59,760, 9-O-pyrrole-2-carbonyl ester of nodusmicin, reference compound]: in the data set on S. aureus UC-76, the “MIC S. aureus UC-76” value was found to be 0.125 µg/mL (≈ 0.242 µM). Further, in the data set on S. aureus UC 80, the “Agar Diffusion S. aureus UC 80 (inhibition zone)” value is 38.
As to 9-O--3-Furoyl- [U-61,461], in the data set with S. aureus UC-570, the “MIC S. aureus UC-570” value was found to be 0.25 µg/mL. Moreover, in the data set with S. aureus UC-76, the “MIC S. aureus UC-76” value stood at 0.50 µg/mL. The “MIC S. aureus UC-746” value in the data set with S. aureus UC-746 amounted to 0.50 µg/mL. In addition, in the data set with S. aureus UC 80, the “Agar Diffusion S. aureus UC 80 (inhibition zone)” value was 35. In the data set on S. lutea UC-130 (1 mg./ml. methanolic solution, 12.7 mm paper disc, 16 hours, NZ = no zone), the “Agar Diffusion S. lutea UC-130 (inhibition zone)” value is recorded as 41.
`COC1CC2C=CC3C4OC2(C(C)=CC(C)C(C(C)O)OC1=O)C3C(O)C(C)C4OC(=O)c1cc2ccccc2[nH]1` (stereo not drawn) [U-61,273, 9-O--Indole-2-carbonyl-]: the “insoluble” value in data set [1] is reported as “insoluble”.
Take `COC1CC2C=CC3C4OC2(C(C)=CC(C)C(C(C)OC(=O)c2ccccc2)OC1=O)C3C(O)C(C)C4O` (stereo not drawn) [18-O--benzoyl-, 18-O-benzoylnodusmicin]: the zone of inhibition at 1000 µg/mL in the data set on S. lutea UC-130 (UC130, 16 h, read-out: Agar Diffusion S. lutea UC-130 (inhibition zone)) is 24 mm; in the data set with S. lutea UC-130 (UC130, read-out: zone of inhibition, S. lutea), 24 mm.
Consider `COC1CC2C=CC3C4OC2(C(C)=CC(C)C(C(C)O)OC1=O)C3C(O)C(C)C4OC(=O)c1ccccc1` (stereo not drawn) [9-O--benzoyl-, 9-O-benzoyl-nodusmicin], for which the “insoluble” value in data set [1] is reported as “insoluble”.
On the same count and under the same terms, with `COC1CC2C=CC3C4OC2(C(C)=CC(C)C(C(C)OC(=O)c2ccc[nH]2)OC1=O)C3C(O)C(C)C4OC(=O)c1ccc[nH]1` (stereo not drawn) [U-60,908, 9, 18-O--Dipyrrole-2-carbonyl-] the entry was “insoluble”.
